Read-outs that look alike come from different tables or passages of the source.
Tested on: Lox-IMVI melanoma cell line
Assay: Lox-IMVI anti-proliferative assay (growth inhibition, Cell Titer-Glo)
Type: cell-based, human
Details: Homo sapiens
In short: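 Growth inhibition is assessed over 72 h in RPMI + 10% FBS at 0.2% DMSO, with ATP-based luminescence used as the viability measure. IC50 is fitted from normalized dose-response data.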

[1] = IC50 activity level in the cell-based Lox-IMVI anti-proliferative assay, read-out: Activity
[2] = Lox-IMVI anti-proliferative assay, IC50 activity level, read-out: Activity
[3] = Lox-IMVI melanoma cell line, anti-proliferative assay, read-out: Activity (IC50 activity level)

IC50 [1] [nM] | IC50 [3] [nM] | SMILES | further results
> 1000 |  | NC(=O)[C@H]1CC[C@@H](n2c(Nc3c(F)cc(F)cc3F)nc3cnc(N[C@H]4CCOC[C@@H]4F)nc32)CC1 [Example 277, (1R,4s)-4-(2-((3R,4S)-3-fluorotetrahydro-2H-pyran-4-ylamino)-8-(2,4,6-trifluorophenylamino)-9H-purin-9-yl)cyclohexanecarboxamide] | 
500 to 1000 |  | C[C@H](CO)Nc1ncc2nc(Nc3c(F)cc(Cl)cc3Cl)n([C@H]3CC[C@@H](C(N)=O)CC3)c2n1 [Example 133, (1S,4s)-4-(8-(2,4-dichloro-6-nuorophenylamino)-2-((R)-1-hydroxypropan-2-ylamino)-9H-purin-9-yl)cyclohexanecarboxamide] | 
 |  | C[C@]1(C(N)=O)CC[C@@H](n2c(Nc3c(F)cc(C#N)cc3Cl)nc3cnc(NC4CCCC4)nc32)CC1 [Example 575, (1s,4s)-4-(8-(2-chloro-4-cyano-6-fluorophenylamino)-2-(cyclopentylamino)-9H-purin-9-yl)-1-methylcyclohexanecarboxamide] | IC50 [2]: < 250 nM
 |  | C[C@@H](CO)Nc1ncc2nc(Nc3c(F)cc(Cl)cc3F)n([C@H]3CC[C@@](C)(C(N)=O)CC3)c2n1 [Example 550, (1R,4s)-4-(8-(4-chloro-2,6-difluorophenylamino)-2-((S)-1-hydroxypropan-2-ylamino)-9H-purin-9-yl)-1-methylcyclohexanecarboxamide] | IC50 [2]: < 250 nM
 | > 1000 | NC(=O)[C@H]1CC[C@@H](n2c(Nc3c(Cl)cc(Cl)cc3Cl)nc3cnc(NC[C@@H]4CCCC[C@@H]4O)nc32)CC1 [Example 654, (1R,4s)-4-(2-(((1S,2S)-2-hydroxycyclohexyl)methylamino)-8-(2,4,6-trichlorophenylamino)-9H-purin-9-yl)cyclohexanecarboxamide] | 
> 1000 |  | Cc1c(Nc2nc3cnc(NC4CCOCC4)nc3n2[C@H]2CC[C@@H](C(N)=O)CC2)ccc(Cl)c1F [Example 89, (1s,4s)-4-(8-(4-chloro-3-fluoro-2-methylphenylamino)-2-(tetrahydro-2H-pyran-4-ylamino)-9H-purin-9-yl)cyclohexanecarboxamide] | 
 | < 250 | C[C@]1(C(N)=O)CC[C@@H](n2c(Nc3c(F)cc(Cl)cc3Cl)nc3cnc(NC4CCC4)nc32)CC1 [Example 605, (1s,4s)-4-(2-(cyclobutylamino)-8-(2,4-dichloro-6-fluorophenylamino)-9H-purin-9-yl)-1-methylcyclohexanecarboxamide] | 
 | > 1000 | NC(=O)[C@H]1CC[C@@H](n2c(Nc3c(F)cc(F)cc3F)nc3cnc(N[C@@H]4CCCN(Cc5ccccc5)C4)nc32)CC1 [Example 756, (1S,4s)-4-(2-((R)-1-benzylpiperidin-3-ylamino)-8-(2,4,6-trifluorophenylamino)-9H-purin-9-yl)cyclohexanecarboxamide] | 
500 to 1000 |  | NC(=O)[C@H]1CC[C@@H](n2c(Nc3c(F)cc(C(F)(F)F)cc3Cl)nc3cnc(NC4CCOCC4)nc32)CC1 [Example 398, (1s,4s)-4-(8-(2-chloro-6-fluoro-4-(trifluoromethyl)phenylamino)-2-(tetrahydro-2H-pyran-4-ylamino)-9H-purin-9-yl)cyclohexanecarboxamide] | 
 | < 250 | N#Cc1cc(F)c(Nc2nc3cnc(N[C@H]4CCOC[C@H]4F)nc3n2[C@H]2CC[C@@H](C(N)=O)CC2)c(Cl)c1 [Example 670, (1R,4s)-4-(8-(2-chloro-4-cyano-6-fluorophenylamino)-2-((3S,4S)-3-fluorotetrahydro-2H-pyran-4-ylamino)-9H-purin-9-yl)cyclohexanecarboxamide] | 
> 1000 |  | NC(=O)[C@H]1CC[C@@H](n2c(Nc3c(F)cc(Cl)cc3F)nc3cnc(N[C@H]4CCC[C@@H](O)C4)nc32)CC1 [Example 372, (1R,4s)-4-(8-(4-chloro-2,6-difluorophenylamino)-2-((1S,3R)-3-hydroxycyclohexylamino)-9H-purin-9-yl)cyclohexanecarboxamide] | 
 | 250 to 500 | C[C@]1(C(N)=O)CC[C@@H](n2c(Nc3c(Cl)cc(C#N)cc3Cl)nc3cnc(N[C@@H]4CCC[C@@H](O)C4)nc32)CC1 [Example 624, (1S,4s)-4-(8-(2,6-dichloro-4-cyanophenylamino)-2-((1R,3R)-3-hydroxycyclohexylamino)-9H-purin-9-yl)-1-methylcyclohexanecarboxamide] | 
> 1000 |  | NC(=O)[C@H]1CC[C@@H](n2c(Nc3c(F)cc(F)cc3Cl)nc3cnc(N[C@H]4CCOC4)nc32)CC1 [Example 241, (1R,4s)-4-(8-(2-chloro-4,6-difluorophenylamino)-2-((S)-tetrahydrofuran-3-ylamino)-9H-purin-9-yl)cyclohexanecarboxamide] | 
> 1000 |  | NC(=O)[C@H]1CC[C@@H](n2c(Nc3c(Cl)cc(Cl)cc3Cl)nc3cnc(NCC4(CO)CC4)nc32)CC1 [Example 205, (1s,4s)-4-(2-((1-(hydroxymethyl)cyclopropyl)methylami-no)-8-(2,4,6-trichlorophenylamino)-9H-purin-9-yl)cyclohexanecarboxamide] | 
 | < 250 | C[C@]1(C(N)=O)CC[C@@H](n2c(Nc3c(F)cc(F)cc3F)nc3cnc(NC4CCC4)nc32)CC1 [Example 607, (1s,4s)-4-(2-(cyclobutylamino)-8-(2,4,6-trifluorophenylamino)-9H-purin-9-yl)-1-methylcyclohexanecarboxamide] | 
> 1000 |  | CC(C)Nc1ncc2nc(Nc3c(F)ccc(F)c3F)n([C@H]3CC[C@@H](C(N)=O)CC3)c2n1 [Example 98, (1s,4s)-4-(2-(isopropylamino)-8-(2,3,6-trifluorophenylamino)-9H-purin-9-yl)cyclohexanecarboxamide] | 
 |  | C[C@]1(O)CCC[C@@H](Nc2ncc3nc(Nc4ccc(F)cc4Cl)n([C@H]4CC[C@@H](C(N)=O)CC4)c3n2)C1 [Example 429, (1S,4s)-4-(8-(2-chloro-4-fluorophenylamino)-2-((1R,3S)-3-hydroxy-3-methylcyclohexylamino)-9H-purin-9-yl)cyclohexanecarboxamide] | IC50 [2]: > 1000 nM
> 1000 |  | C[C@@H]1CC[C@@H](Nc2ncc3nc(Nc4c(F)cc(F)cc4F)n([C@H]4CC[C@@H](C(N)=O)CC4)c3n2)C[C@H]1O [Example 341, (1S,4s)-4-(2-((1R,3R,4R)-3-hydroxy-4-methylcyclohexylamino)-8-(2,4,6-trifluorophenylamino)-9H-purin-9-yl)cyclohexanecarboxamide] | 
 |  | CC(C)(CO)CNc1ncc2nc(Nc3c(Cl)cc(C#N)cc3Cl)n([C@H]3CC[C@@H](C(N)=O)CC3)c2n1 [Example 482, (1s,4s)-4-(8-(2,6-dichloro-4-cyanophenylamino)-2-(3-hydroxy-2,2-dimethylpropylamino)-9H-purin-9-yl)cyclohexanecarboxamide] | IC50 [2]: > 1000 nM
 |  | COC(=O)N1CCCC(Nc2ncc3nc(Nc4c(F)cc(Cl)cc4Cl)n([C@H]4CC[C@@H](C(N)=O)CC4)c3n2)C1 (stereo partly drawn) [Example 412, (R)-methyl 3-(9-((1s,4S)-4-carbamoylcyclohexyl)-8-(2,4-dichloro-6-fluorophenylamino)-9H-purin-2-ylamino)piperidine-1-carboxylate] | IC50 [2]: 250 to 500 nM
 | > 1000 | CCN1CCC[C@@H](Nc2ncc3nc(Nc4c(Cl)cc(C#N)cc4Cl)n([C@H]4CC[C@@H](C(N)=O)CC4)c3n2)C1 [Example 733, (1S,4s)-4-(8-(2,6-dichloro-4-cyanophenylamino)-2-((R)-1-ethylpiperidin-3-ylamino)-9H-purin-9-yl)cyclohexanecarboxamide] | 
 | > 1000 | C[C@]1(C(N)=O)CC[C@@H](n2c(Nc3c(F)cc(Cl)cc3F)nc3cnc(N[C@H]4CC[C@H](O)C4)nc32)CC1 [Example 648, (1R,4s)-4-(8-(4-chloro-2,6-difluorophenylamino)-2-((1S,3S)-3-hydroxycyclopentylamino)-9H-purin-9-yl)-1-methylcyclohexanecarboxamide] | 
> 1000 |  | NC(=O)[C@H]1CC[C@@H](n2c(Nc3c(Cl)cc(F)cc3Cl)nc3cnc(N[C@@H]4CCCOC4)nc32)CC1 [Example 189, (1S,4s)-4-(8-(2,6-dichloro-4-fluorophenylamino)-2-((R)-tetrahydro-2H-pyran-3-ylamino)-9H-purin-9-yl)cyclohexanecarboxamide] | 
500 to 1000 |  | CC(C)Nc1ncc2nc(Nc3c(Cl)cc(F)cc3Cl)n([C@H]3CC[C@@H](C(N)=O)CC3)c2n1 [Example 123, (1s,4s)-4-(8-(2,6-dichloro-4-fluorophenylamino)-2-(isopropylamino)-9H-purin-9-yl)cyclohexanecarboxamide] | 
 | < 250 | C[C@]1(C(N)=O)CC[C@@H](n2c(Nc3c(F)cc(C#N)cc3Cl)nc3cnc(N[C@@H]4CC[C@@H](O)C4)nc32)CC1 [Example 640, (1S,4s)-4-(8-(2-chloro-4-cyano-6-fluorophenylamino)-2-((1R,3R)-3-hydroxycyclopentylamino)-9H-purin-9-yl)-1-methylcyclohexanecarboxamide] | 
 | > 1000 | N#Cc1cc(F)c(Nc2nc3cnc(N[C@H]4CCC[C@@H](O)C4)nc3n2[C@H]2CC[C@@H](C(N)=O)CC2)c(Cl)c1 [Example 687, (1R,4s)-4-(8-(2-chloro-4-cyano-6-fluorophenylamino)-2-((1S,3R)-3-hydroxycyclohexylamino)-9H-purin-9-yl)cyclohexanecarboxamide] | 
 |  | NC(=O)[C@H]1CC[C@@H](n2c(Nc3c(Cl)cc(Cl)cc3Cl)nc3cnc(N[C@H]4CCC(F)(F)C4)nc32)CC1 [Example 594, (1R,4s)-4-(2-((S)-3,3-difluorocyclopentylamino)-8-(2,4,6-trichlorophenylamino)-9H-purin-9-yl)cyclohexanecarboxamide] | IC50 [2]: 250 to 500 nM

SMILES | IC50 [1] [nM] | IC50 [3] [nM] | further results
N#Cc1ccc(Nc2nc3cnc(NC4CCC(F)(F)CC4)nc3n2[C@H]2CC[C@@H](C(N)=O)CC2)c(Cl)c1Cl [Example 695, (1s,4s)-4-(8-(2,3-dichloro-4-cyanophenylamino)-2-(4,4-difluorocyclohexylamino)-9H-purin-9-yl)cyclohexanecarboxamide] |  | > 1000 | 

Reference: patent US11590139B2, “Substituted aminopurine compounds, compositions thereof, and methods of treatment therewith” (Signal Pharmaceuticals, LLC, priority 2014, dated 2023)
